Test results as given in patent publication US20230181801A1, “MOLECULAR IODINE-INFUSED POLYMERS, ARTICLES, AND PRODUCTS, AND THEIR PREPARATION AND USE” (I2PURE CORP., priority 2021, published 2023).

Key:
[1] = Stability of molecular iodine in solvent at room temperature; assay type: physicochemical; settings: in ethanol, 15 days at room temperature in the dark
[2] = room temperature; cited from earlier work

II [I2, molecular iodine]
loss of molecular iodine [1]: over 15%
maximum solubility in water [2]: 332 ppm
